{"source": "patent US11779585B2", "about": "(priority 2020, dated 2023)", "key": {"SARS-CoV2": {"tested_on": "SARS-CoV2", "assay": "microbe, parasite or virus in culture", "type": "cell-based, SARS-CoV-2"}, "SARS-CoV": {"tested_on": "SARS-CoV", "conditions": "Dyall et al.; cited from earlier work"}, "MERS-CoV": {"tested_on": "MERS-CoV", "conditions": "Dyall et al.; cited from earlier work"}, "Vero E6 cells": {"tested_on": "Vero E6 cells", "conditions": "hydrochloride"}, "2019-nCoV": {"tested_on": "2019-nCoV", "conditions": "Wang et al., not in Table 7; cited from earlier work"}, "[1]": {"conditions": "Severe acute respiratory syndrome coronavirus 2, Vero C1008"}}, "note": "Several values for one entry are separate records, joined by “and”; a condition that tells them apart may be missing. Equal values may be shown once. Read-outs that look alike come from different tables or passages of the source."}
{"compound": "CN(C)CCCN1c2ccccc2Sc2ccc(Cl)cc21.Cl", "note": "[Chlorpromazine HCl, chlorpromazine HCl, reference compound]", "values": [{"measurement": "Inhibition", "setting": "SARS-CoV2; 30 µM, HCl", "value": 100.2, "unit": "%"}, {"measurement": "Inhibition", "setting": "SARS-CoV2; 60 µM, HCl", "value": 100.2, "unit": "%"}, {"measurement": "IC50", "setting": "SARS-CoV2; [1]", "value": 7.2, "unit": "µM"}, {"measurement": "inhibition at 30 µM", "setting": "SARS-CoV2; [1]", "value": 100, "unit": "%"}, {"measurement": "IC50", "setting": "SARS-CoV", "value": 13, "unit": "µM"}, {"measurement": "IC50", "setting": "MERS-CoV", "value": 9.5, "unit": "µM"}]}
{"compound": "Cl.NC(=O)c1cn([C@@H]2O[C@H](CO)[C@@H](O)[C@H]2O)c2ncnc(N)c12", "note": "[Oya2, 4-amino-7-((2R,3R,4S,5R)-3,4-dihydroxy-5-(hydroxymethyl)tetrahydrofuran-2-yl)-7H-pyrrolo[2,3-d]pyrimidine-5-carboxamide hydrochloride]", "values": [{"measurement": "Inhibition", "setting": "SARS-CoV2; 0.0047 μM, MOI 0.6, Plate 2, hydrochloride", "value": "6.759% and 2.316%"}, {"measurement": "Inhibition", "setting": "SARS-CoV2; 0.0047 μM, title MOI 0.6 (text MOI 1.3), Plate 1, hydrochloride", "value": "−4.548% and −2.306% and −5.003%"}, {"measurement": "Inhibition", "setting": "SARS-CoV2; 0.0047 μM, title MOI 0.6 (text MOI 1.3), Plate 2, hydrochloride", "value": "−12.4801% and −9.091%"}, {"measurement": "Inhibition", "setting": "SARS-CoV2; 0.0094 μM, MOI 0.6, Plate 2, hydrochloride", "value": 22.21, "unit": "%"}, {"measurement": "Inhibition", "setting": "SARS-CoV2; 0.0094 μM, title MOI 0.6 (text MOI 1.3), Plate 2, hydrochloride", "value": "−4.5066% and −0.5728% and 3.754%"}, {"measurement": "Inhibition", "setting": "SARS-CoV2; 0.0188 μM, MOI 0.6, Plate 2, hydrochloride", "value": "9.743% and 4.635%"}, {"measurement": "Inhibition", "setting": "SARS-CoV2; 0.0188 μM, title MOI 0.6 (text MOI 1.3), Plate 1, hydrochloride", "value": "1.888% and −0.5178% and 4.439%"}, {"measurement": "Inhibition", "setting": "SARS-CoV2; 0.0375 μM, MOI 0.6, Plate 1, hydrochloride", "value": "12.21% and 2.813% and 5.217%"}, {"measurement": "Inhibition", "setting": "SARS-CoV2; 0.0375 μM, MOI 0.6, Plate 2, hydrochloride", "value": "−1.2509% and −10.9963%"}, {"measurement": "Inhibition", "setting": "SARS-CoV2; 0.0375 μM, title MOI 0.6 (text MOI 1.3), Plate 2, hydrochloride", "value": "9.292% and 6.13%"}, {"measurement": "Inhibition", "setting": "SARS-CoV2; 0.075 μM, MOI 0.6, Plate 1, hydrochloride", "value": "48.8% and 30.54%"}, {"measurement": "Inhibition", "setting": "SARS-CoV2; 0.075 μM, MOI 0.6, Plate 2, hydrochloride", "value": 77.73, "unit": "%"}, {"measurement": "Inhibition", "setting": "SARS-CoV2; 0.15 μM, MOI 0.6, Plate 1, hydrochloride", "value": "94.81% and 98.18%"}, {"measurement": "Inhibition", "setting": "SARS-CoV2; 0.15 μM, MOI 0.6, Plate 2, hydrochloride", "value": 99.76, "unit": "%"}, {"measurement": "Inhibition", "setting": "SARS-CoV2; 0.15 μM, title MOI 0.6 (text MOI 1.3), Plate 1, hydrochloride", "value": "100.5487% and 99.6%"}, {"measurement": "Inhibition", "setting": "SARS-CoV2; 0.15 μM, title MOI 0.6 (text MOI 1.3), Plate 2, hydrochloride", "value": "95.57% and 98.32%"}, {"measurement": "Inhibition", "setting": "SARS-CoV2; 0.3 μM, MOI 0.6, Plate 1, hydrochloride", "value": 99.8055, "unit": "%"}, {"measurement": "Inhibition", "setting": "SARS-CoV2; 0.3 μM, MOI 0.6, Plate 2, hydrochloride", "value": 99.76, "unit": "%"}, {"measurement": "Inhibition", "setting": "SARS-CoV2; 0.3 μM, title MOI 0.6 (text MOI 1.3), Plate 1, hydrochloride", "value": 99.49, "unit": "%"}, {"measurement": "Inhibition", "setting": "SARS-CoV2; 0.3 μM, title MOI 0.6 (text MOI 1.3), Plate 2, hydrochloride", "value": 97.81, "unit": "%"}, {"measurement": "Inhibition", "setting": "SARS-CoV2; 0.6 μM, MOI 0.6, Plate 1, hydrochloride", "value": 99.76, "unit": "%"}, {"measurement": "Inhibition", "setting": "SARS-CoV2; 0.6 μM, MOI 0.6, Plate 2, hydrochloride", "value": 100.0302, "unit": "%"}, {"measurement": "Cytotoxicity", "setting": "Vero E6 cells; 0.0047 μM, MOI 0.6, Plate 1", "value": "−2.54% and −1.465% and −2.751%"}, {"measurement": "Cytotoxicity", "setting": "Vero E6 cells; 0.0047 μM, MOI 0.6, Plate 2", "value": "−2.54% and −1.465% and −2.751%"}, {"measurement": "Cytotoxicity", "setting": "Vero E6 cells; 0.0094 μM, MOI 0.6, Plate 1", "value": "0.4496% and −3.731% and −1.047%"}, {"measurement": "Cytotoxicity", "setting": "Vero E6 cells; 0.0094 μM, MOI 0.6, Plate 2", "value": "0.4496% and −3.731% and −1.047%"}, {"measurement": "Cytotoxicity", "setting": "Vero E6 cells; 0.0188 μM, MOI 0.6, Plate 1", "value": "−1.946% and −1.045% and −1.4651%"}, {"measurement": "Cytotoxicity", "setting": "Vero E6 cells; 0.0188 μM, MOI 0.6, Plate 2", "value": "−1.946% and −1.045% and −1.4651%"}, {"measurement": "Cytotoxicity", "setting": "Vero E6 cells; 0.075 μM, MOI 0.6, Plate 1", "value": "16.08% and 19.63% and 18.13%"}, {"measurement": "Cytotoxicity", "setting": "Vero E6 cells; 0.075 μM, MOI 0.6, Plate 2", "value": "16.08% and 19.63% and 18.13%"}, {"measurement": "Cytotoxicity", "setting": "Vero E6 cells; 0.15 μM, MOI 0.6, Plate 1", "value": "35.37% and 35.25% and 31.56%"}, {"measurement": "Cytotoxicity", "setting": "Vero E6 cells; 0.15 μM, MOI 0.6, Plate 2", "value": "35.37% and 35.25% and 31.56%"}, {"measurement": "Cytotoxicity", "setting": "Vero E6 cells; 0.3 μM, MOI 0.6, Plate 1", "value": "55.54% and 56.53% and 57.44%"}, {"measurement": "Cytotoxicity", "setting": "Vero E6 cells; 0.3 μM, MOI 0.6, Plate 2", "value": "55.54% and 56.53% and 57.44%"}, {"measurement": "Cytotoxicity", "setting": "Vero E6 cells; 0.6 μM, MOI 0.6, Plate 1", "value": "69.74% and 68.71% and 69.51%"}, {"measurement": "Cytotoxicity", "setting": "Vero E6 cells; 0.6 μM, MOI 0.6, Plate 2", "value": "69.74% and 68.71% and 69.51%"}]}
{"compound": "CCN(CC)CCCC(C)Nc1ccnc2cc(Cl)ccc12", "note": "(stereo not shown) [chloroquine]", "values": [{"measurement": "IC50", "setting": "2019-nCoV", "value": 1130, "unit": "nM"}]}
